We go through 25 compounds from patent publication US20190015423A1, “REGULATION OF GENE EXPRESSION BY MODULATING PRIMARY CILIA LENGTH” (THE TRUSTEES OF COLUMBIA UNIVERSITY IN THE CITY OF NEW YORK, priority 2016, published 2019).

The test has as its system MLO-Y4 osteocytes. Description: High-throughput drug screening of primary cilia length and incidence. The format is cell-based. The protocol: MLO-Y4 osteocytes were maintained on collagen I-coated dishes in MEMα (Life_Technologies) supplemented with 5% fetal bovine serum (FBS), 5% calf serum (CS), and 1% penicillin/streptomycin (P/S) at 37° C. and 5% CO2. Osteocytes were then seeded onto 384-well collagen-coated plates for 72 hours before fixation. […] These libraries include Tocris, Sigma LOPAC, Selleck Chemical, Prestwick, and Spectrum commercially available compound libraries. All cell seeding and plate handling was performed with the Perkin Elmer cell:explorer workstation.
Cells were fixed in 4% paraformaldehyde and permeabilized with 0.1% Triton-X 100 (Sigma). 10% goat serum (vendor) was used for blocking. Cilia were stained using a monoclonal antibody against acetylated α-tubulin (1:20) from a C3B9 hybridoma cell line, and visualized with A F488 (1:1000, ThermoFisher). Nuclei were visualized with Hoechst. Cells were imaged using a GE INCell 2000 high-throughput imager at 40× magnification. 4 fields of view were taken per well.
Each pair of nuclei and cilia images was first analyzed individually, then the entire population was examined to evaluate each compound's effect on cilia length and incidence. A custom MATLAB script was developed to perform all image analysis. This script first utilizes an enhanced implementation of a watershed transform, which is a segmentation tool which enables detection of similarly shaped overlapping particles in noisy images by the procedural whittling down of pixels found close to the edge of such particles. The augmentation of the algorithm incorporates thresholding for noise removal based on signal intensity and object size, nuclei dilation to exclude non-cellular artifacts, as well as skeletonization of cilia to quantify length. The results of the analysis are number of nuclei, number of cilia, and average cilia length in each image.
Compounds were selected based on deviation from the population mean. Each well was normalized to vehicle control images on each plate, allowing the establishment of a normalized population mean. Hits were chosen based on compounds whose triplicate mean was furthest (based on standard deviation away) from the population mean. […] Compounds were classified based on mechanism of action.
To identify compounds that modulate primary cilia formation a high-throughput platform was developed to automate cell culture, staining, imaging, and analysis, as shown in schematic form in FIG. 18. […] Cells were cultured on 384-well plates, and treated with small molecules with known biologic activity, enabling classification of mechanisms of action. Drug treatment was applied for 16 hours at 10 μM concentration, performed in triplicate, before fixation and immunostaining of primary cilia. Cells were then imaged using the GE INCell 2000 High Content Analyzer, capturing 4 fields of view per well at 40× magnification. Additionally, each plate contains 8 wells of DMSO vehicle control.
A MATLAB script was developed to detect and analyze changes in ciliogenesis. […] A representative exemplary image (FIG. 19A) is cropped to better display features, scale bar represents 30 μm. A custom MATLAB script was used to identify nuclei and cilia for analysis (FIG. 19B). […] Objects are further filtered based on size and signal intensity.
Cilia length and incidence for each field of view were normalized to vehicle control on that individual plate. This allowed development of a normalized population average and standard deviation. […] To control for toxic effects only small molecules with at least 40% viability, based on number of nuclei versus control, were selected as hits. Furthermore, compounds repeated between multiple libraries eliciting the same effect on cilia length or incidence were excluded, such that only one of the repeated compounds was selected as a hit.

The mark [1] stands for this setting: 10 μM, 16 hours, triplicate, normalized to vehicle control, standard deviation away from the population average.

Structures can show the parent of a compound that is named as a salt. Where two headings read alike, the source gives them in different places.

As to `Cc1ncc([N+](=O)[O-])n1CCO` [Metronidazole (Flagyl), Metronidazole], the “Average Incidence SD Away” value under setting [1] is 2.092 SD.

For the compound `O=C1NC(=O)C(c2ccccc2[N+](=O)[O-])=C1Nc1ccc(O)c(Cl)c1` [SB 415286], under setting [1], the “Average Length SD Away” value amounted to 2.05 SD.

Take `O=C1Cc2c([nH]c3ccc(Br)cc23)-c2ccccc2N1` [Kenpaullone]: the “Average Length SD Away” value under setting [1] is listed as 3.28 SD.

For `CCC[S+]([O-])c1ccc2[nH]c(NC(=O)OC)nc2c1` (stereo not drawn) [Albendazole Oxide (Ricobendazole), Albendazole Oxide], under setting [1], the “Average Incidence SD Away” value was 2.017 SD.

For the compound `Cc1cccc(C)c1NC(=O)CN1CCCC1=O` [Nefiracetam (Translon), Nefiracetam], under setting [1], the “Average Incidence SD Away” value is given as 1.552 SD.

In the case of `CC1=NCCc2c1[nH]c1cc(O)ccc21.Cl` [HARMALOL HYDROCHLORIDE], the “Average Length SD Away” value under setting [1] is 1.629 SD.

In the case of `CN(CCOc1ccc(C[C@H](Nc2ccccc2C(=O)c2ccccc2)C(=O)O)cc1)c1ccccn1` [GW 1929], under setting [1], the “Average Length SD Away” value turned out to be 1.65 SD.

In the case of `COC(=O)Nc1nc2ccc([S+]([O-])c3ccccc3)cc2[nH]1` (stereo not drawn) [Oxfendazole], under setting [1], the “Average Incidence SD Away” value is recorded as 2.268 SD and the “Average Length SD Away” value is listed as 1.574 SD.

`CCc1c2c(nc3ccc(OC(=O)N4CCC(N5CCCCC5)CC4)cc13)-c1cc3c(c(=O)n1C2)COC(=O)[C@]3(O)CC.Cl` [CPT 11]: under setting [1], the “Average Incidence SD Away” value is given as 1.633 SD and the “Average Length SD Away” value is given as 1.894 SD.

Take `CC[C@@]1(O)C(=O)OCc2c1cc1n(c2=O)Cc2cc3cc(O)ccc3nc2-1` [10-HYDROXYCAMPTOTHECIN]: under setting [1], the “Average Length SD Away” value is listed as 2.11 SD.

Take `O=c1[nH]c(=O)n([C@H]2C[C@H](O)[C@@H](CO)O2)cc1I` [Idoxuridin]: the “Average Incidence SD Away” value under setting [1] is given as 1.798 SD.

As to `Cc1cccc(Cc2c[nH]cn2)c1C` [Detomidine HCl], the “Average Incidence SD Away” value under setting [1] is on record as 1.922 SD.

For `Br.C=CCN1CCc2cc(O)c(O)cc2C(c2ccccc2)C1` (stereo not drawn) [SKF 77434 hydrobromide], under setting [1], the “Average Length SD Away” value worked out at 1.527 SD.

For `Cc1cccc(N(C)C(=S)Oc2ccc3ccccc3c2)c1` [Tolnaftate], under setting [1], the “Average Incidence SD Away” value was 1.5099 SD.

With Ro 19-4605, the “Average Length SD Away” value under setting [1] was found to be 1.584 SD.

As for `CCCC(=O)OCOC(=O)C1=C(C)NC(C)=C(C(=O)OC)C1c1cccc(Cl)c1Cl` (stereo not drawn) [Cleviprex (Clevidipine), Clevidipine], under setting [1], the “Average Incidence SD Away” value is listed as 1.837 SD.

For `Cc1cc(NS(=O)(=O)c2ccc(N)cc2)no1` [Sulfamethoxazole], the “Average Incidence SD Away” value under setting [1] was determined as 1.767 SD.

Take `CC(C)(C)CC(C)(C)c1ccc(OCCOCC[N+](C)(C)Cc2ccccc2)cc1` [Benzethonium chloride]: the “Average Length SD Away” value is given as 5.179 SD.

For `CNCCc1ccccn1` [BETAHISTINE HYDROCHLORIDE], under setting [1], the “Average Length SD Away” value worked out at 1.532 SD.

For the compound `CCCCC(=O)N(Cc1ccc(-c2ccccc2-c2nnn[nH]2)cc1)[C@H](C(=O)O)C(C)C` [Valsartan (Diovan), Valsartan], the “Average Incidence SD Away” value under setting [1] is reported as 1.648 SD.

With `CCOC(=O)N1CCC(=C2c3ccc(Cl)cc3CCc3cccnc32)CC1` [Loratidine], under setting [1], the “Average Length SD Away” value stood at 2.261 SD.

For the compound `COC(=O)C1=C(C)NC(C)=C(C(=O)OC2CCCN(Cc3ccccc3)C2)C1c1cccc([N+](=O)[O-])c1` (stereo not drawn) [Benidipine hydrochloride], under setting [1], the “Average Incidence SD Away” value came to 1.811 SD.

For the compound `CCN(C)C(=O)Oc1cccc([C@H](C)N(C)C)c1` [Rivastigmine tartrate (Exelon), Rivastigmine tartrate], the “Average Incidence SD Away” value under setting [1] came out at 1.664 SD.

In the case of `CC1=C(/C=C/C(C)=C/C=C/C(C)=C/C(=O)Nc2ccc(O)cc2)C(C)(C)CCC1` [Retinoic acid p-hydroxyanilide], the “Average Length SD Away” value under setting [1] came out at 2.487 SD.

`COc1cc2c(cc1OC)C1C(=O)c3c(cc4c(c3O)C=CC(C)(C)O4)OC1CO2` (stereo not drawn) [beta-TOXICAROL]: the “Average Length SD Away” value under setting [1] was found to be 1.664 SD.
